± gives the expanded uncertainty stated by the source.
Details: 298.15 K; 101.33 kPa; Liquid; Pycnometric method

| Structure (SMILES) | mass density [kg/m3] |
| --- | --- |
| COP(=O)([O-])OC.Cn1cc[n+](C)c1 [1,3-dimethylimidazolium dimethylphosphate] | 1257.8 ± 1.6 |
| CCOP(=O)([O-])OCC.CCn1cc[n+](C)c1 [1-ethyl-3-methylimidazolium diethyl phosphate] | 1146.1 ± 1.4 |

Reference: the NIST ThermoML archive (doi:10.1016/j.fluid.2014.09.016)
